The numbers were not newly measured in patent US11160791B2, “Dexmedetomidine injection premix formulation in ready to use (RTU) bags” (Medefil, Inc., priority 2018, dated 2021), which cites them from elsewhere.

Structures are written as SMILES.

Regarding `Cc1cccc([C@H](C)c2cnc[nH]2)c1C` [dexmedetomidine], the “drug loss with a buffer” value (plastic containers, buffer system in the formulation, same prior patents) was approximately 10%. In addition, the “dexmedetomidine loss when sodium chloride is used” value (plastic containers, even with buffers present, U.S. Pat. No. 9,649,296) was “at least 10%”. For the same compound, the “loss of the dexmedetomidine from the liquid composition” value (plastic materials, U.S. Pat. Nos. 8,242,158, 8,648,106, 8,436,033, 8,338,470) is listed as “up to 20%”.
